Data reported in patent US20080058310A1, “High-density lipoprotein-cholesterol level elevating agent” (Takeda Pharmaceutical Company Limited, priority 2000, published 2008).

Tests used:
[1] = system: common marmosets; test: Plasma lipid change in common marmosets after four days of oral administration (Test Example 1); format: in vivo, common marmoset; details: male common marmosets, 100 mg/kg/day oral once a day for four days, blood plasma on fifth day, Means ± SEM (N = 5)
Method: Male common marmosets (300-500 g) were bred while feeding normal feed (CMS-1, CLEA Japan, Inc.) and water freely. The body weight was measured. Blood was taken from the femoral vein, and the total cholesterol (TC), HDL-cholesterol (HDL-C) and triglyceride (TG) in blood plasma were measured using Wako Pure Chemical kit (manufactured by Wako Pure Chemicals, Inc.) and an autoanalyzer (Hitachi 7070). The animals were devided into groups, each of which consisted of five animals. The subject compound, as a suspension in 0.5% methylcellulose, was forced oral administration to the animals once a day and for four days. On the morning of the fifth day, the body weight was measured. Blood was then taken from the femoral vein, and the total cholesterol, triglyceride and HDL-cholesterol in blood plasma were measured according to the above-mentioned method. The non-HDL-C was calculated by subtracting the HDL-cholesterol from the total cholesterol.

[2] = system: WHHL (Watanabe heritable hyperlipidemic) rabbits; test: Blood lipid levels in WHHL (LDL receptor-deficient) rabbits fed the compound in feedstuff for 14 days (Test Example 2); format: in vivo, rabbit; details: Means ± SEM (n = 6)
Method: WHHL (Watanabe heritable hyperlipidemic) rabbits (2 to 3 months-old, four male, eight female), LDL receptor-deficient animal were used. The body weight was measured. Blood was then taken from the ear central artery, and the total cholesterol (TC) and triglyceride (TG) in blood plasma were measured using Wako Pure Chemical kit (manufactured by Wako Pure Chemicals, Inc.) and an autoanalyzer (Hitachi 7070). The animals were divided into two groups, each of which consisted of six animals. The subject compound was mixed with a basic feedstuff (RC-4, Oriental Yeast, Co., Ltd) in an amount of 0.2%, and the mixed feedstuff was fed to the animals in an amount of 120 g per a day (corresponds to the amount of 100 mg/kg/day). To the control group was fed basic feedstuff in an amount of 120 g per a day. The blood lipid levels at the starting of administration and after finishing the administration for 14 days are shown in Table 2 and Table 3, respectively.

[3] = 0.2% in feed (corresponds to 100 mg/kg/day), after 14 days relative to initial
[4] = 0.2% in feed (corresponds to 100 mg/kg/day), after administration for 14 days
[5] = blood plasma at the starting of administration (baseline) of the 0.2% in feed group

COc1cccc([C@H]2O[C@H](CC(=O)N3CCC(CC(=O)O)CC3)C(=O)N(CC(C)(C)COC(C)=O)c3ccc(Cl)cc32)c1OC [subject compound, N-[[(3R,5S)-1-(3-acetoxy-2,2-dimethylpropyl)-7-chloro-5-(2,3-dimethoxyphenyl)-2-oxo-1,2,3,5-tetrahydro-4,1-benzoxazepin-3-yl]acetyl]piperidine-4-acetic acid]
HDL-C (%-change) [1]: 16.2 ± 10% | TG (%-change) [1]: −37.6 ± 17% | Non-HDL-C (%-change) ([1]; non-HDL-C = total cholesterol minus HDL-cholesterol): −40.4 ± 4 % | TC % of initial [2, 3]: 85 ± 2 % | TG % of initial [2, 3]: 40 ± 3 % | TC (mg/dL) end [2, 4]: 715 ± 36 mg/dL | TG (mg/dL) end [2, 4]: 107 ± 10 mg/dL | TC (mg/dL) initial [2, 5]: 838 ± 45 mg/dL | TG (mg/dL) initial [2, 5]: 272 ± 24 mg/dL
